Experimental data: PMC8049054, “Systematic Assessment of Fragment Identification for Multitarget Drug Design” (Chemmedchem, 2021)

Tests used:
RXRα = biological target: T1, RXRα (Homo sapiens, UniProt P19793); experiment: ITC measurement RXRα LBD; format: binding; set-up: key: n.b.: no binding; w.b.: weak binding; settings: 50 μM protein, 250 μM compound, 25 °C
T1 construct: MBP (N, cleaved yes); poly-N-tag, His8-tag, TEV site (N, cleaved yes); made in house; host or cells: E. coli T7-express with pGro7 (GroEL/ES)
T1 sequence (P19793 225-462): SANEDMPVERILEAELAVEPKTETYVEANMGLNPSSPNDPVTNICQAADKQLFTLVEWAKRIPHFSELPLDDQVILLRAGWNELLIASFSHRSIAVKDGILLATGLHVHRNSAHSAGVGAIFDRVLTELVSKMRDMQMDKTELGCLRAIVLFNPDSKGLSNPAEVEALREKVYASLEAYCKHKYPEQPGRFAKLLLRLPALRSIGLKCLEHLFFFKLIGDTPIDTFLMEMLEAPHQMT
Description: (§1) For hit validation, we employed secondary assays with orthogonal readouts to confirm fragment activities. Biochemical activity assays were chosen for the enzymes sEH, LTA4H, and 5‐LOX. […] RXRα and FXR modulation was assessed in cell‐based hybrid reporter gene assays. All ten compounds were tested at a single concentration of 500 μM in the sEH and LTA4H activity assays and with a concentration of 100 μM on 5‐LOX, RXRα, and FXR. Fragments showing an inhibition greater than 50 % (sEH‐H and LTA4H) or greater than 70 % (5‐LOX) as well as the hits determined in the DSF experiments were further characterized in full concentration‐response curves between 0.1 and 1000 μM. […] As alternative cell‐free assay we employed isothermal titration calorimetry (ITC) to determine binding affinity of the fragments towards the LBDs of both nuclear receptors. ITC was performed with a protein concentration of 50 μM and compound concentrations of 250 μM. […]
(§2) Final concentration per well was 3 nM sEH-Fl, 0.001 % Triton X-100, 25 mM Bis-tris, 0.1 mg/ml BSA, pH = 7.0, 1.6% DMSO […]

FXR = biological target: T2, FXR (Homo sapiens, UniProt Q96RI1); experiment: ITC measurement FXR LBD; format: binding; set-up: key: n.b.: no binding; w.b.: weak binding; settings: 50 μM protein, 250 μM compound, 25 °C
T2 construct: His6-tag and TEV site (N, cleaved yes); made in house; host or cells: E. coli BL21 (DE3)
T2 sequence (Q96RI1 244-472 isoform Q96RI1-2): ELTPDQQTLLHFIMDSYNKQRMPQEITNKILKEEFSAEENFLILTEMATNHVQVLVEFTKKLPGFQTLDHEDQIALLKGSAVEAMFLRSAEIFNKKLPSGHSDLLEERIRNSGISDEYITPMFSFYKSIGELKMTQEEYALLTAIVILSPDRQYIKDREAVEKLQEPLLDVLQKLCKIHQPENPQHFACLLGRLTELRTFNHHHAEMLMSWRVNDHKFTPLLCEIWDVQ
Description: as §1, §2

[1] = system: sEH, LTA4H, 5‐LOX, FXR, RXR; experiment: Orthogonal (secondary) assays, summary statements over the targets
Description: as §1
% (5-LOX) as well as the hits determined in the DSF experiments were further measured with concentrations between 1000 µM and 0.1 µM (sEH-H and LTA4H) and between 300 µM and 1 µM (5-LOX). […] The 5-LOX activity assay was performed with one point per concentration and repeated 3 times Raw data was first analyzed in Microsoft Office Excel (2013), before IC50 curves were plotted and further analyzed using GraphPad Prism 7 and GraphPad Prism 8 for the shown graphs .
The eight approved drugs were measured in the orthogonal assay systems analogous to the fragments. […]
For the sEH-H and LTA4H, they were measured as triplicate in concentrations between 1000 µM and 1 µM and each measurement was repeated three times. For the 5-LOX they were measured as single point measurement in three different experiments with concentrations between 300 µM and 1 µM. […]
The sEH-H activity assay was performed adapted from Hahn et al.5 and Lukin et al.6. […] The Plate was measured every minute for 45 min. […]

sEH-H = biological target: T3, sEH-H (Homo sapiens, UniProt P34913); experiment: ITC measurement sEH-H; format: binding; settings: 25 °C, read-out: sEH K d
T3 construct: For the expression of sEH-H and sEH-Fl transformed E.coli BL21 (DE3) cells were grown in 5052; made in house; host or cells: E. coli BL21 (DE3)
T3 sequence (P34913 235-555 limits assumed): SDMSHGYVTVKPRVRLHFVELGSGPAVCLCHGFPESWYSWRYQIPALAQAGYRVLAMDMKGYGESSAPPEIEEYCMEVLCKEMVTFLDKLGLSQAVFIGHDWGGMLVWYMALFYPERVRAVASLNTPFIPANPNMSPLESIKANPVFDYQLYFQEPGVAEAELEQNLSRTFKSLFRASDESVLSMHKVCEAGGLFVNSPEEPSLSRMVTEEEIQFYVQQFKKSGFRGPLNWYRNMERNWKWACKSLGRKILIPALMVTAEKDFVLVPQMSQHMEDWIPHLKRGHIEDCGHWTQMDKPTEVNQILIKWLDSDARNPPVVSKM

Compound	RXRα K d (RXRα)	FXR K d (FXR)	Kd (sEH-H) [nM]	confirmation of dual DSF hits in the orthogonal experiments [1]
c1ccc(N2CCNCC2)nc1 [Compound 1]	n.b.	n.b.		
Cc1cc(=O)n(-c2ccc(C)c(C)c2)[nH]1 [Compound 2]				confirmed active
Fc1ccc(-c2c[nH]c3ccccc23)cc1 [Compound 10]	n.b.	n.b.	860	confirmed active

The next lines start with results.

RXRα K d (RXRα)	FXR K d (FXR)	Kd (sEH-H) [nM]	Compound	confirmation of dual DSF hits in the orthogonal experiments [1]
	n.b.		Oc1ccc2cc[nH]c2c1 [Compound 5]	
	w.b.		Clc1ccc2c(c1)Nc1ccccc1CC2 [Compound 8]	
n.b.		3500	Oc1ccc(-c2ccc(F)cc2F)cc1 [Compound 9]	confirmed active
